From patent US9072729B2, “Method for treating fibrosis and cancer with imidazolium and imidazolinium compounds” (Agency for Science, Technology and Research, priority 2008, dated 2015)

Key:
[1] = test system: liver fibrosis induced by bile duct ligation (BDL); test: Liver fibrosis in mice induced by bile duct ligation (BDL); assay type: in vivo, mouse; settings: for liver fibrosis (Sirius Red collagen): drinking water, 4 weeks, DBZIM 10 mg/L, DPIM 1 g/L
Description: FIG. 15 Effect of DBZIM and DPIM on liver fibrosis in mice. DBZIM was tested on mice induced by (a) liver toxin thioacetamide (TAA) or by (b) bile duct ligation (BDL). DPIM was also tested on mice induced by TAA (data not shown)) or by (c) bile duct ligation (BDL).
FIG. 16. Representative of images of Sirius red staining in liver sections from different DPIM compound treated group mice. Each treated group had 6-8 mice, except for 500 mg/l treated group, which had only one mouse in the group. Red staining areas represent collagen deposits. (A) sham operated, (B) sham operated+DPIM 1 g/l for 4 weeks, (C) BDL for 4 weeks, (D) BDL 4 weeks+500 mg/l DPIM treatment, (E) BDL 4 weeks+750 mg/l DPIM treatment, and (F) BDL 4 weeks+1 g/l DPIM treatment.
FIG. 17. Percentage of Sirius red staining areas. Sirius red staining areas from different treatment group mice were quantified with Image J software, at least 6 different areas from left and middle lobes of liver of each mouse were covered. *P<0.05, BDL vs. DPIM treated groups; # P<0.05, 750 mg/l vs. 1 g/l treated groups.
FIG. 18. Liver weights of different treatment groups. Each group consisted of 6-8 mice which were 10-12 weeks old at the start of surgery procedure. *P<0.05, sham operated control group vs: BDL 4 weeks, **P<0.05, DPIM compound treated groups vs; BDL weeks group, # P<0.05, 750 mg/l DPIM treated group vs. 1 g/l DPIM treated group.
FIG. 19. Representative images of H&E staining of liver sections. (A) control group; (B) BDL 4 weeks group; and (C) BDL 4 weeks+DPIM 1 g/l treatment group.
FIG. 20. Quantitative real-time PCR for collagen 1a1 mRNA. DPIM reduced collagen 1a1 mRNA.
For the liver toxin thioacetamide (TAA) model, TAA was given by i.p. injection at 200 mg/kg body weight, 3 times per week, for 12 weeks, to induce hepatic fibrosis in mice. For the bile duct ligation model (BDL), adult mice were anesthetized with Ketamine (150 mg/kg)/Xylazine (10 mg/kg) via i.p. injection. An abdominal incision at the midline is made to expose the common bile conduct, which was then ligated using 5-0 silk suture. In the control animal, the bile duct is exposed, but not ligated. DBZIM or DPIM was provided to the mice in drinking water at concentrations from 1 to 1000 mg/liter. The collagen content in the fibrotic liver was assessed by the Sirius Red staining of the liver tissue sections.
Male FVB/N mice (8-10 weeks old) housed in a specific pathogen-free (SFP) facility on a 12 hour dark-light cycle and with free access to water and diet were used in the study. The animal experiment protocol was approved by the institutional animal care and use committee (IACUC), the Biomedical Research Council (BMRC) of Singapore.
Cholestatic fibrosis was induced by BDL, briefly, mice were anesthetized with intraperitoneal injection of ketamine (150 mg/kg) and xylazine (10 mg/kg), after midline laparotomy, the common bile duct was ligated twice with 5-0 silk suture. The sham operation was performed similarly except that bile duct was not double ligated. The experimental mice were divided into four groups: 1) control only (sham operated, but no BDL); 2) control+DPIM; 3) BDL only; 4) BDL+DPIM. Each group consists of 6-8 mice. DPIM compound for treatment was supplied in the drinking water at three concentrations, 500 mg/l, 750 mg/l, 1 g/l, respectively. The drinking water containing DPIM was changed weekly. It was observed that on average each mouse (normal or operated) drank approximately 3-4 ml plain or DPIM-containing water every day. […] The compound treatment was started on the third day after animals recovered from the BDL procedure. After 4 weeks, livers were removed from mice for fixation 10% formalin, subsequently embedded in paraffin.
For consistency, paraffin-sections prepared from the left and median lobes were stained with Sirius-Red to visualize the collagen content. […]

[2] = test system: HLE cells; test: HLE cell proliferation assay (cell count, BrdU; HCS); assay type: cell-based, human; settings: 0-1.25 mM, 48 h
Description: FIG. 21. DBZIM inhibited cell proliferation and disrupted cell cycle in HLE cells (A). DBZIM inhibited HCC cell proliferation. HLE cells were seeded at a density of 5000 cells/well in 96-well plate, and cultured for 18-24 h in 10% […] DMEM before the addition of various compounds (0-1.25 mM) in 10% FBS DMEM for 48 h of proliferation before assaying. Cell count was calculated based on Hoechst dye staining and BrdU incorporation was based on the total fluorescence intensity of antibody staining. (B). DBZIM arrested HCC cells at G0/G1 phase. HLE cells were incubated with DBZIM (0, 1, 3 mM) for 24 hr before fixation and DAPI staining for DNA content (2N vs. 4N) determination.
HLE cells were grown, treated by compounds in 6 replicates for 48 hr in a 96-well plate. Cells were then fixed by using 4% paraformaldehyde and stained by DAPI and BrdU antibody using Hitkit (Thermo Scientific, IL, USA). Cells were imaged and analyzed on ArrayScan VTI HCS reader (Thermal Scientific, PA, USA). Cell numbers were counted based on nuclear staining and BrdU incorporation was determined and expressed as percentage of positively stained cells.
The effect of DBZIM on the HCC cell proliferation and cell cycle was characterized on a high-content screening (HCS) platform. Under each concentration, at lease 1000 cells were analyzed. […]

[3] = test system: C6; test: Proliferation assay (MTS), glioma C6; assay type: cell-based; settings: Rattus norvegicus, 48 h; C6, determined at day 2
Description: FIG. 30. DBZIM inhibited cell proliferation in glioma cell line C6 (A) and U87 MG (C) and induced caspase 3/7 activity in C6 (B) and U87 MG (D). C6 or U87 cells were incubated with DBZIM of various concentrations for 48 hr for proliferation assay and 6 hr for caspase 3/7 activation assay. Proliferation was measured using MTS kit from Promega and expressed as relative cell proliferation with control group was normalized to 1. Caspase 3/7 activity was quantified using a kit from Promega and also expressed as relative caspase 3/7 activity of treated groups over control group.
(§1) Proliferation of Glioma cell lines: U87 MG and C6 under the treatment of DBZIM was examined using 3-(4,5-dimethylthiazol-2-yl)-5-(3-carboxymethoxyphenyl)-2-(4-sulfophenyl)-2H-tetrazolium (MTS) based proliferation assay kit (Promega, Wis., USA). MTS reagent was added to the control and treated cells (after 48 hr) directly and the absorbance signal was read at 490 nm using a Tecan Safire II plate reader.

[4] = test system: AGS; test: Proliferation assay (MTS), gastric cancer cell line; assay type: cell-based; settings: Homo sapiens, 72 h, day 3
Description: as §1
The IC50 value (determined at day 3) was 50 μM for H1299 (lung cancer); 50 μM for MCF-7 (breast cancer), and 40 μM for AGS gastric cancer at day 3 (Table 3).

Row | SMILES | liver fibrosis (Sirius Red collagen) ([1]; BDL model) | HLE cell proliferation (total cell number, BrdU positive cells) [2] | IC50 [3] | IC50 [4] | liver weight ([1]; BDL 4 weeks + 750 mg/l (BDL alone 2.74±0.51 g)) | Sirius-Red positive areas (percentage of staining areas; BDL alone 8.69) ([1]; BDL 4 weeks + 750 mg/l in drinking water) | proliferative cells around the sinusoidal area (H&E staining) ([1]; BDL 4 weeks + 1 g/l) | liver weight ([1]; BDL 4 weeks + 1 g/l (BDL alone 2.74±0.51 g)) | Sirius-Red positive areas (percentage of staining areas; BDL alone 8.69) ([1]; BDL 4 weeks + 1 g/l in drinking water) | liver collagen 1a1 mRNA ([1]; BDL model) | collagen build-up in sham mice ([1]; sham operated + 1 g/l for 4 weeks) | liver weight ([1]; sham operated + DPIM for 4 weeks (sham 1.50±0.19 g))
1 | [Br-].c1ccc(Cn2cc[n+](Cc3ccccc3)c2)cc1 [DBZIM, 1,3-bisbenzylimidazolium bromide] | attenuated fibrosis | inhibited the HLE cell proliferation | 1000 µM | 40 µM | – | – | – | – | – | – | – | –
2 | CC(C)n1cc[n+](C(C)C)c1.F[B-](F)(F)F [DPIM, 1,3-diisopropylimidazolium tetrafluoroborate] | displayed its effect | – | – | – | 1.97 ± 0.44 g | 4.33% | reduced the number of proliferative cells | 1.65 ± 0.20 g | 3.42% | reduced the collagen 1a1 mRNA | did not induce any significant build-up of collagen | 1.56 ± 0.08 g
